ChEMBL document CHEMBL3616393, “Recent progress on MAP kinase pathway inhibitors” (Bioorg Med Chem Lett, 2015)

Key:
Homo sapiens [1] = assay: In vivo inhibition of B-RAF in inhibitor-pretreated patient relative to control; type: functional
Homo sapiens [2] = assay: In vivo inhibition of B-RAF in naive patient relative to control; type: functional
Homo sapiens [3] = assay: Toxicity in patient administered daily; type: organism-based; conditions: in vivo
[4] = molecular target: Serine/threonine-protein kinase B-raf (Homo sapiens) (UniProt P15056); assay: Binding affinity to B-RAF (unknown origin) assessed as dissociation half life
[5] = molecular target: T1, Mitogen-activated protein kinase 3 (Homo sapiens, UniProt P27361); assay: Inhibition of ERK1 (unknown origin) after 45 mins by IMAP assay
[6] = Plasma half life in po dosed Sprague-Dawley rat; type: ADME, organism-based
[7] = Effective half life in patient; type: ADME, organism-based; conditions: human, in vivo; read-out: t1/2eff
[8] = molecular target: T1, Mitogen-activated protein kinase 3; assay: Competitive inhibition of ERK1 (unknown origin) in presence of ATP

T1 sequence (P27361 whole entry): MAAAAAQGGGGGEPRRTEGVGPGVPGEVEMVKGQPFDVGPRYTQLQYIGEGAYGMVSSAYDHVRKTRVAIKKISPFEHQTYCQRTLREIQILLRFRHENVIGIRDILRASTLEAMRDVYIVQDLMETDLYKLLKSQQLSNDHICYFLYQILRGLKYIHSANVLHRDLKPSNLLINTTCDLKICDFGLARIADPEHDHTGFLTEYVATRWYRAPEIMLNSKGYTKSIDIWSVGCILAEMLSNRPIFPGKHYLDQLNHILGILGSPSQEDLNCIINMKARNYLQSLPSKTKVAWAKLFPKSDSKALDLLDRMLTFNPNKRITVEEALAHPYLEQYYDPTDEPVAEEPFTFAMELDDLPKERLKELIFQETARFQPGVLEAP
Chain of Serine/threonine-protein kinase B-raf (Homo sapiens) (P15056 whole entry): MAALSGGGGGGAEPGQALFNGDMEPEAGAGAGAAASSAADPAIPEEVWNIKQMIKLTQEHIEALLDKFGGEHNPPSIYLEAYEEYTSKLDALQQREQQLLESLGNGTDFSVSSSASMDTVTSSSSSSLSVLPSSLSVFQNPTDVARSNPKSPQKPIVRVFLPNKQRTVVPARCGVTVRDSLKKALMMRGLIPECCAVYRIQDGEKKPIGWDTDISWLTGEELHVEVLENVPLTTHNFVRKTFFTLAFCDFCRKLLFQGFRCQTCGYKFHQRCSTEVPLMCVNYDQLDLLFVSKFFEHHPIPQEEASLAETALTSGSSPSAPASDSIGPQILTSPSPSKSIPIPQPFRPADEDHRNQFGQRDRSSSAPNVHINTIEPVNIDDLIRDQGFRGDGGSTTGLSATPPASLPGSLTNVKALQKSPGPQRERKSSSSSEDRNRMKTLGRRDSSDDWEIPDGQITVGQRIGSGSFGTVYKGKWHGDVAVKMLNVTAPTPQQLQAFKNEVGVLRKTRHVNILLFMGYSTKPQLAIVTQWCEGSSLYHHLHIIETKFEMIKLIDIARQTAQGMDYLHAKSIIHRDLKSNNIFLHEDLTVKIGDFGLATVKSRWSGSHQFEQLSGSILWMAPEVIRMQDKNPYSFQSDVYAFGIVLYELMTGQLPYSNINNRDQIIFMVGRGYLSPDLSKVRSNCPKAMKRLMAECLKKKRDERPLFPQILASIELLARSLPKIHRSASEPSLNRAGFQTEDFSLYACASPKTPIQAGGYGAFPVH

COC(=O)N[C@@H](C)CNc1nccc(-c2cn(C(C)C)nc2-c2cc(Cl)cc(NS(C)(=O)=O)c2F)n1 [ENCORAFENIB]
inhibition (INH) (Homo sapiens [1]): 11%
inhibition (INH) (Homo sapiens [2]): 58%
MTD (Homo sapiens [3]): 600 mg
T1/2 [4]: > 24 h

O=C(Nc1ccc2[nH]nc(-c3ccncc3)c2c1)[C@@H]1CCN(CC(=O)N2CCN(c3ccc(-c4ncccn4)cc3)CC2)C1
IC50 [5]: 4 nM

CC(=O)Nc1cccc(-n2c(=O)n(C3CC3)c(=O)c3c(Nc4ccc(I)cc4F)n(C)c(=O)c(C)c32)c1 [TRAMETINIB]
half-life [6]: > 30 h
half-life [7]: > 40 h

CC(C)Nc1cc(-c2c[nH]c(C(=O)N[C@H](CO)c3cccc(Cl)c3)c2)c(Cl)cn1
INH [8]: 300 pM

Cn1cnc2c(F)c(Nc3ccc(Br)cc3F)c(C(=O)NOCCO)cc21 [BINIMETINIB]
inhibition (INH) (Homo sapiens [1]): 18%
inhibition (INH) (Homo sapiens [2]): 88%
